# Measured values from patent publication US20100048713A1, “COMPOUNDS ACTING ON THE SEROTONIN TRANSPORTER” (Aarhus Universitet, priority 2006, published 2010).
# Experiments:
# hSERT [1] = biological target: T1, hSERT (Homo sapiens, UniProt P31645); test: Binding assay on whole cells transfected with hSERT ([3H]-citalopram displacement); details: for EC50: whole cell assay, 35 nM [3H]-citalopram, 60 min room temperature, table title: 45 min preincubation
# T1 construct: expressed in transfected cells; the general 96-well protocol names Cos-1
# Description: The pcDNA3 plasmid vector containing the hSERT gene was used for transfection (see FIG. 6).
# (§1) The 96-well plate was washed with PBSCM to remove DMEM prior to the assay. […] The plate was subsequently incubated for 60 min at room temperature. The assay was terminated by washing once with PBSCM. The amount of accumulated [^3H]-citalopram was determined by solubilizing cells in scintillant (MicroScint 20) with direct counting of plates in a Packard TopCounter. Data was analyzed by GraphPad software.
# hSERT [2] = biological target: T1, hSERT; test: 5-HT uptake assay with preincubation (whole cells); format: cell-based; details: whole cell assay with preincubation (title 45 min, text 60 min), 75 nM [3H]-5-HT, 10 min
# Description: 7 μl Fugene-6 was mixed with 112 μl Dulbecco's modified Eagle's medium, and incubated at room temperature for 5 minutes. 4 μg of plasmid were added and the mixture was further incubated at least 15 minutes. Cos-1 cells were trypsinized and suspended in growth media, and the plasmid/Fugene-6 mixture was added followed by dispersion into a 96-well plate.
# as §1, with “assay. 50 μl PBSCM containing increasing concentrations of allosteric ligand were added to each well, and incubated for 60 min at room temperature under moderate agitation.” for “assay.”, “10” for “60”, “[^3H]-5-HT” for “[^3H]-citalopram”
# We tested the allosteric ligands for their ability to inhibit/activate 5-HT-uptake in the whole-cell assay after 60 minutes preincubation.
# hSERT [3] = biological target: T1, hSERT; test: Binding of [3H]-citalopram to membrane preparations; details: 35 nM [3H]-citalopram, 60 min RT
# Description: (§2) 17.5 μl Fugene-6 (Roche Molecular Biochemicals) were mixed with 280 μl Dulbecco's modified Eagle's medium, and incubated at room temperature for 5 minutes. 10 μg of plasmid were added and the mixture was further incubated at least 15 minutes. […] Prior to harvesting the dish was rinsed in PBS. Cells were harvested with a cell scraper in buffer 1 (50 mM Tris-base, 150 mM NaCl, 20 mM EDTA, pH 7.4). After centrifugation (3000 g at 4° C. for 10 mins), cells were suspended and homogenized with an IKA Ultra-Turrax from Rose Scientific Ltd (Edmonton, Alberta, Canada) for 20 s in buffer 1. Membranes were pelleted by ultracentrifugation (12 000 g at 4° C. for 15 min) and homogenization was repeated in buffer 1. Finally, after ultracentrifugation (12000 g, 4° C., 15 min) membranes were resuspended in 1 ml buffer 3 (50 mM Tris-base, 120 mM NaCl, 5 mM KCl, pH 7.4) and stored at −80° C.
# A dilution series of the allosteric ligand was prepared in buffer 3 containing 70 nM [^3H]-citalopram. […] The mixture was incubated under moderate agitation at RT for 60 min. Reactions were terminated by filtration through GF/C glass-fibre filters (Unifilter, Perkin Elmer Life Sciences), preincubated with 40 μl 0.5 % polyethyleneimine, using a Pachard Bell cell harvester, and subsequently washed three times with water. Filters were soaked in 40 μl Microscint 20 scintillation liquid (Pachard Bell). Bound radioactivity was determined by direct counting of plates using a Packard Bell microplate scintillation counter. Displacing curves were obtained by plotting residual binding vs. log concentration of the displacing ligand.
# hSERT [4] = biological target: T1, hSERT; test: Dissociation assay with [3H]-citalopram and hSERT membrane preparations; format: binding; details: for Stabilises dissociation of [3H]-citalopram: own effect (10 uM fluoxetine) (concentration which affects dissociation): 10 uM fluoxetine in dissociation buffer; for Stabilises dissociation of [3H]-citalopram: 15 uM citalopram (concentration which affects dissociation): 15 uM citalopram in dissociation buffer
# Description: as §2
# Dissociation assay with [^3H]-citalopram and membrane preparations SERT-[^3H]-citalopram complex was formed by incubating hSERT membrane preparation and radioligand in buffer 3 during a 60 min incubation at 4° C. Radioligand was present at a concentration 10 times the Kd value. The time kinetic of dissociation was followed by adding 10 μL complex solution to 250 μL buffer 3 in 96-well plates and incubating subsequently for increasing time intervals at RT. Reactions were terminated by filtration through GF/C glass-fibre filters (Unifilter, Perkin Elmer Life Sciences), preincubated with 40 μl 0.5 % polyethyleneimine, using a Pachard Bell cell harvester, and subsequently washed three times with water. Filters were soaked in 40 μl Microscint 20 scintillation liquid (Pachard Bell). Bound radioactivity was determined by direct counting of plates using a Packard Bell microplate scintillation counter. Dissociation curves were obtained by plotting residual binding vs. time of dissociation.
# The interaction of the allosteric ligand with the allosteric mechanism used by citalopram was studied by combining allosteric ligand and citalopram in the dissociation buffer. The interaction of the allosteric ligand with the radioligand was studied by combining the allosteric ligand and fluoxetine in the dissociation buffer.
# (§3) Dissociation of [^3H]-citalopram from the serotonin transporter has been studied using membrane preparations from SERT-expressing cells. The off-rates of the radioligand were measured in the presence/absence of a fixed concentration of allosteric ligand. […] Additionally, the allosteric impact on the radioligand in the absence of citalopram, was studied by combining 10 μM fluoxetine and 200/2000 μM allosteric ligand in the dissociation buffer. […] The cells were incubated for 10 minutes before the assay was terminated by washing in PBSCM.
# hSERT [5] = biological target: T1, hSERT; test: Binding of [125I]-RTI-55 in whole cell assay, hSERT; details: displacement of [125I]-RTI-55
# Text: RTI-55 was used to test for the compounds of the present invention to act as displacers of cocain.
# (§4) Because RTI-55 (and cocaine) acts as inhibitors of SERT and DAT, we also performed the binding assay in cells transfected with human DAT.
# hDAT = biological target: T2, hDAT (Homo sapiens, UniProt Q01959); test: Binding of [125I]-RTI-55 in whole cell assay, cells transfected with human DAT; details: displacement of [125I]-RTI-55
# T2 construct: expressed in transfected cells
# Text: A binding assay as described in example 2, wherein the cocaine analogue [^125I] RTI-55 was used to test for the compounds of the present invention to act as displacers of cocain.
# as §4
# hSERT [6] = biological target: T1, hSERT; test: 5-HT uptake assay, 10 min incubation without preincubation; format: cell-based; details: 75 nM [3H]-5-HT, no preincubation
# Description: Cells were grown for 48 h to confluency, and prior to uptake assay, plates were washed in PBSCM. All washing steps were carried out in an automatic plate washer. […] The assay was terminated by washing with PBSCM. The amount of accumulated [^3H]-5HT was determined by solubilizing cells in scintillant (MicroScint 20) with direct counting of plates in a Packard TopCounter. Data was analyzed by GraphPad software.
# as §3
# T1 sequence (P31645 whole entry): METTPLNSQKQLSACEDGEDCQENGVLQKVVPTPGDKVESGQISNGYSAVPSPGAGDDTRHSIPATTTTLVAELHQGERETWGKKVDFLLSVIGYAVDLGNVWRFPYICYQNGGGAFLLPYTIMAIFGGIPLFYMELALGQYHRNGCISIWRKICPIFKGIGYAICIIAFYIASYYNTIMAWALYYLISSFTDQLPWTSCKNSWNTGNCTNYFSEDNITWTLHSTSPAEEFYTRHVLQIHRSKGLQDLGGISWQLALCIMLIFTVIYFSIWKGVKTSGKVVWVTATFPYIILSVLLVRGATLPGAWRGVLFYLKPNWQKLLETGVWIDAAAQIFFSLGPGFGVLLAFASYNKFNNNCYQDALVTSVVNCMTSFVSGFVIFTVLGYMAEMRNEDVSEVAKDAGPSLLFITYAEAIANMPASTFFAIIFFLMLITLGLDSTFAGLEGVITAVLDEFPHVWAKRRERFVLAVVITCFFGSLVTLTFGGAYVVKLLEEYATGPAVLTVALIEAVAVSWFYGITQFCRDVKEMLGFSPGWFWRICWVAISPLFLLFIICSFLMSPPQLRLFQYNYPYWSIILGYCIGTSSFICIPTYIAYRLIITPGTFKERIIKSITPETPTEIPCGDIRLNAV
# T2 sequence (Q01959 whole entry): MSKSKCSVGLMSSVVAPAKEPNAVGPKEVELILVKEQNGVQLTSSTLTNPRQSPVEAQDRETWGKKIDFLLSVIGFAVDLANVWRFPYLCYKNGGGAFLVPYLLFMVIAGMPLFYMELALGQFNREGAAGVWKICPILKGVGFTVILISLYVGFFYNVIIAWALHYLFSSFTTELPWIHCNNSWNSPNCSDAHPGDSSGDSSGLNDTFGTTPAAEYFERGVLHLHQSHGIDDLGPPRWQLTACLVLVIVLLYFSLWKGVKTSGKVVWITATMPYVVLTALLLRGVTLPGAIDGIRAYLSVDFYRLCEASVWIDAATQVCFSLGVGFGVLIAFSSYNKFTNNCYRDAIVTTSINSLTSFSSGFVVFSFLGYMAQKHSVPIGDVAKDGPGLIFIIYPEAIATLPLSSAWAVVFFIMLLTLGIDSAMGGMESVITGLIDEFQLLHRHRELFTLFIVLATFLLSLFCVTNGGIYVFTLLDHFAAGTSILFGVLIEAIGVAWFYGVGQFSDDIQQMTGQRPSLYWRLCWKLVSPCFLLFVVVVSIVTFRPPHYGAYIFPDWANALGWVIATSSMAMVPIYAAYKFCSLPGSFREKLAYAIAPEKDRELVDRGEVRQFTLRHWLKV
EC50 (hSERT [1]),IC50 (hSERT [2]),EC50 (hSERT [5]),EC50 (hDAT),concentration that increases the allosteric impact on dissociation by 15 μM citalopram (FIG. 7) (hSERT [4]; 15 μM citalopram),"displacement of the radioligand (FIG. 3) (hSERT [1]; increasing concentrations, 60 minutes incubation at room temperature)",Structure (SMILES),Binding of [3H]-citalopram (Bmax) (hSERT [3]),Stabilises dissociation of [3H]-citalopram: own effect (10 uM fluoxetine) (concentration which affects dissociation) (hSERT [4]),Stabilises dissociation of [3H]-citalopram: 15 uM citalopram (concentration which affects dissociation) (hSERT [4]),5-HT uptake (effect) (hSERT [6]),5-HT uptake (effect) (hSERT [6]; listed as PefaCl)
1050 µM,> 2000 µM,–,–,–,–,C=CS(=O)(=O)c1ccccc1 [TS17],No effect,2000 µM,2000 µM,–,–
185 µM,275 µM,220 µM,138 µM,–,–,O=C(O)c1ccc2ccccc2c1O [TS27],–,–,–,–,–
54 µM,453 µM,1.1 µM,2.9 µM,–,–,Nc1c(O)cc(S(=O)(=O)O)c2ccccc12 [TS16],–,–,–,–,–
1020 µM,15.9 µM,–,–,–,–,Cc1ccc2ccccc2c1[N+](=O)[O-] [TS23],–,–,–,–,–
> 2000 µM,60 µM,–,–,–,–,N#Cc1cccc2ccccc12 [TS21],–,–,–,–,–
523 µM,–,269 µM,212 µM,–,–,Nc1ccc(S(=O)(=O)O)c2ccccc12 [TS12],–,–,–,–,–
276 µM,> 2000 µM,510 µM,288 µM,–,–,O=C(O)c1c(O)ccc2ccccc12 [TS28],–,–,–,–,–
> 2000 µM,> 2000 µM,–,–,–,–,[C-]#[N+]CS(=O)(=O)c1ccc(C)cc1 [TS15],No effect,2000 µM,2000 µM,No effect,–
950 µM,422 µM,–,–,–,displaces the radioligand,Nc1cccc2c(N)cccc12 [TS19],–,–,–,–,–
> 2000 µM,25.9 µM,–,–,–,–,O=[N+]([O-])c1ccc(F)c2ccccc12 [TS25],–,–,–,–,–

# Second part, the compound before the results:
Structure (SMILES),EC50 (hSERT [1]),IC50 (hSERT [2]),EC50 (hSERT [5]),EC50 (hDAT),concentration that increases the allosteric impact on dissociation by 15 μM citalopram (FIG. 7) (hSERT [4]; 15 μM citalopram),"displacement of the radioligand (FIG. 3) (hSERT [1]; increasing concentrations, 60 minutes incubation at room temperature)",Binding of [3H]-citalopram (Bmax) (hSERT [3]),Stabilises dissociation of [3H]-citalopram: own effect (10 uM fluoxetine) (concentration which affects dissociation) (hSERT [4]),Stabilises dissociation of [3H]-citalopram: 15 uM citalopram (concentration which affects dissociation) (hSERT [4]),5-HT uptake (effect) (hSERT [6]),5-HT uptake (effect) (hSERT [6]; listed as PefaCl)
CN(C)c1cccc2c(S(=O)(=O)Cl)cccc12 [TS7],1390 µM,> 2000 µM,–,–,–,–,–,–,–,–,–
OB(O)c1ccccc1 [TS3],1420 µM,735 µM,> 2000 µM,> 2000 µM,–,–,–,–,–,–,–
Nc1cccc2cccc(S(=O)(=O)O)c12 [TS11],–,> 2000 µM,–,–,–,–,–,–,–,–,–
NC(=O)c1ccccc1 [TS10],> 2000 µM,1150 µM,–,–,–,–,–,–,–,–,–
Clc1cccc2ccccc12 [TS20],> 2000 µM,373 µM,–,–,–,–,No effect,200 µM,200 µM,Inhibition,–
O=[N+]([O-])c1cccc2ccccc12 [TS22],> 2000 µM,2.9 µM,–,–,–,–,No effect,200 µM,200 µM,Inhibition,–
"NCCc1ccc(S(=O)(=O)Cl)cc1 [PefaCI, 4-(2-Aminoethyl)benzenesulfonyle cloride]",1650 µM,–,–,–,–,–,No effect,2000 µM,2000 µM,Increase,increases 5-HT uptake
Nc1cccc2ccccc12 [TS18],1030 µM,458 µM,–,–,–,–,–,–,–,–,–
COS(=O)(=O)c1ccc(C)cc1 [TS6],> 2000 µM,> 2000 µM,–,–,–,–,No effect,No effect,2000 µM,Increase,–
O=S(=O)(c1ccccc1)c1ccccc1 [TS5],> 2000 µM,> 2000 µM,–,–,–,–,–,–,–,–,–
"O=S(=O)(Cl)c1ccccc1 [BSC, benzenesulfonyl chloride]",–,–,–,–,–,–,No effect,–,3000 µM,Increase,–
O=P(O)(O)c1ccccc1 [TS4],> 2000 µM,> 2000 µM,–,–,–,–,–,–,–,–,–
Cc1ccc(S(N)(=O)=O)cc1 [TS1],> 2000 µM,> 2000 µM,–,–,2000 µM,–,No effect,2000 µM,200 µM,Increase,–
"CCOS(=O)(=O)c1cccc2ccccc12 [1-NSC react. EtOH, 1-Naphthalene sulfonic acid ethyl ester]",533 µM,110 µM,462 µM,–,–,–,Displace,300 µM,300 µM,Inhibition,–
CC(=O)c1ccccc1 [TS9],990 µM,> 2000 µM,> 2000 µM,> 2000 µM,–,–,–,–,–,–,–
Cc1ccc(S(=O)(=O)N(C)N=O)cc1 [TS13],> 2000 µM,> 2000 µM,–,–,–,–,displace,200 µM,200 µM,Increase,–
O=S(=O)(Cl)Cc1ccccc1 [PMSC],–,–,–,–,–,–,No effect,–,No effect,Increase,–
